Test results: patent US20110021440A1, “APOPTOTIC PATHWAY TARGETING FOR THE DIAGNOSIS AND TREATMENT OF CANCER” (UNIVERSITY OF MARYLAND, BALTIMORE, priority 2007, published 2011)
Entries after “also recorded” stand apart in the source; their conditions may differ. Peptide text beside a SMILES is read from it. * marks the point of attachment. Cbz = O=C(OCc1ccccc1)*

Key:
[1] = tested on: MCF10A cells stably expressing Bcl-2 (10A-Bcl2); assay: Cell viability assay (XTT), 10A-Bcl2 cells; format: cell-based
Method: Viability was measured with XTT and each point represents the mean+/−S.D. for triplicate samples.

MCF10A cells [2] = format: cell-based
Method: (§1) FIG. 7 illustrates tumor lines with reduced Bik resist apoptosis by cytoskeletal disruption.
(§2) FIG. 13 illustrates cells expressing the survival proteins Bcl-2 or Bcl-xL are highly resistant to cell death induced by cell rounding (LA). […] Nearly 60% of cells overexpressing Bcl-xL remain viable even at concentrations of LA as high as 20 μM. […] Viability was measured with XTT and each point represents the mean+/−S.D. for triplicate samples.
FIG. 19 illustrates that YC137 remains toxic to normal cells (MCF10A). […] Such compounds would not be expected to be effective therapies due to likely side effects on normal tissues. If compounds were only toxic to rounded cells, that would be acceptable, since normal tissues are attached and not rounded.
(§3) Several apoptotic stimuli were tested for their ability to induce Bik expression in MCF10A cells were evaluated (FIG. 7A). Compared to a Ramos positive control lysate, MCF10A cells express very low levels of Bik under normal growth conditions. […] Bik expression in MCF10A cells increased after treatment with Latrunculin-A (LA), an inhibitor of the actin cytoskeleton that causes cell rounding (Martin et al., Mol. Cell. Biol., 21:6529-6536 (2001)). Apoptosis caused by cell rounding and cytoskeletal disruption has been termed amorphosis (Martin et al., Biochim. Biophys. Acta., 1692:145-157 (2004)), and resistance to amorphosis is thought to contribute to metastatic potential by allowing tumor cells to tolerate the cell shape changes that occur during bloodborne dissemination (Martin et al., Oncogene, 23:4641-4645 (2004); Mehlen et al., Nat. Rev. Cancer, 6:449-458 (2006); Pinkas et al., Mol. Cancer. Res., 2:551-556 (2004)). […] Since Bik is induced by cell rounding, its loss in tumors may reduce their apoptotic sensitivity and yield a greater metastatic potential. In fact, reduced expression of Bik predicts increased nodal involvement in colorectal cancer (Bandres et al., Oncol. Rep., 12:287-292 (2004)). Conversely, forced expression of Bik inhibits systemic breast tumor growth (Zou et al., Cancer Res., 62:8-12 (2002)).

Bik protein [3] = assay: Western blotting of Bik protein in MCF10A cells; format: cell-based, human; settings: 24 h
Method: (§4) FIG. 1A relates to human mammary epithelial cells (MCF10A) grown for 24 h in the presence or absence of a proteasomal inhibitor (MG132, 5 μM). […] Lysates from Ramos cells are included as a positive control for Bik and parallel blotting for β-actin confirm equivalent levels of protein. FIG. 1B relates to Bik protein increases after forced cell rounding with the actin polymerization inhibitor, Latrunculin-A (LA, 5 μM for 24 h). Bik protein is low in standard growth media (GROW). […] Cell rounding may therefore act selectively to upregulate Bik rather than through a nonspecific apoptotic signal.
(§5) FIG. 6 illustrates Bik protein is degraded by the proteasome but remains reduced in tumor cell lines. Protein lysates from control cells (Ramos), nontumorigenic human mammary epithelial cells (MCF10A) or 11 human breast tumor cell lines were immunoblotted for Bik and b-actin as a loading control. […] Bik protein remained low in the tumor cell lines, even in the presence of MG132.
as §1
(§6) Bik values were normalized to amplification of GAPDH, which was highly consistent in all cell lines and dissociation curves confirmed specificity with a single major amplification product in each reaction type (FIG. 5B). Despite the detectable levels of mRNA, Bik protein levels were very low in the tumor lines and MCF10A cells under normal growth conditions. Since Bik can be degraded by the proteasome (Zhu et al., Oncogene, 24:4993-4999 (2005)), cells were treated with MG132 to inhibit the proteasome and increase detectable Bik levels (FIG. 6). […] Downregulation of Bik in MDA-MB-453 cells therefore occurs independently from mRNA expression. However, loss of Bik function as a common event in breast tumors continues to be supported by these finding.
as §3

Bik protein [4] = assay: Immunoblot of Bik protein in 11 human breast tumor cell lines; format: cell-based; settings: +MG132 5 μM, 24 h; compared with MCF10A
Source text: as §5, §6

MCF10A cells [5] = assay: Apoptosis / cell death in MCF10A cells (PARP cleavage); format: cell-based, human; settings: for cell death: 24 h, TRAIL 1 μg/mL, CHX 30 μg/mL, DOX 3 μg/mL, not shown; for apoptosis as assessed by PARP cleavage: 24 hours
Method: as §4, §3

BCRP protein [6] = assay: Western blotting of BCRP in MCF10A cells; format: cell-based, human; settings: LA 5 μM, 24 h, rounded
Method: (§7) FIG. 12 illustrates cell rounding also upregulates the BCRP drug resistance protein. […] MCF10A mammary epithelial cells or MCF-7 and Bt-474 breast tumor cells were grown for 24 h in standard media (Control), serum-free conditions (DMEM) or forced cell rounding through inhibition of actin polymerization with Latrunculin-A (LA, 5 μM—Rounded). […] Levels of actin remain constant.

BCRP protein [7] = assay: Western blotting of BCRP in Bt-474 cells; format: cell-based, human; settings: LA 5 μM, 24 h, rounded
Method: as §7

breast tumor cell lines = assay: Cell viability assay (XTT), breast tumor cell lines; format: cell-based, human; settings: tumor cell lines with reduced Bik; up to very high doses, 5 μM LA; listed as LA
Method: as §1
as §3, with “Conversely, forced expression of Bik inhibits systemic breast tumor growth (Zou et al., Cancer Res., 62:8-12 (2002)).” left out

Bik protein [8] = assay: Western blotting of Bik protein in MCF10A cells stably expressing Bcl-2; format: cell-based, human; settings: forced cell rounding, LA 5 μM, 24 h
Source text: (§8) MCF10A or MCF-7 cells show comparably low levels of Bik. […] This increase in Bik is so strong that the moderate increases observed with LA in MCF10A cells (FIG. 7B) cannot even be detected here due to the short exposure times necessary to prevent oversaturating signal.
as §8, with “FIG. 15 illustrates apoptotically-resistant cell accumulate high” for “MCF10A or MCF-7 cells show comparably low”, “Bik when rounded.” for “Bik.”, “7A)” for “7B)”

Bik protein [9] = assay: Western blotting of Bik protein in MCF10A cells stably expressing Bcl-xL; format: cell-based, human; settings: forced cell rounding, LA 5 μM, 24 h
Source text: as §8
as §8, with “FIG. 15 illustrates apoptotically-resistant cell accumulate high” for “MCF10A or MCF-7 cells show comparably low”, “Bik when rounded.” for “Bik.”, “7A)” for “7B)”

[10] = tested on: MCF10A cells stably expressing Bcl-xL; assay: Cell viability assay (XTT), MCF10A cells expressing Bcl-xL; format: cell-based, human
Method: as §2

BCRP protein [11] = assay: Western blotting of BCRP in MCF-7 cells; format: cell-based, human; settings: LA 5 μM, 24 h, rounded
Method: as §7

[12] = tested on: tubulin microtentacles of MDA-436 cells; assay: DIC imaging of tubulin microtentacles in detached breast tumor cells; format: cell-based; settings: tetracaine 100 μM
Method: (§9) FIG. 23 illustrates methods used to image circulating tumor cells and microtentacles. Surgically-isolated blood vessels from mice are sutured to the ends of glass micropipettes to allow solution flow through the vessels. After endothelial labeling with Fluo-4 (green), MDA-436 breast tumor cells, stained with QDot-655 (red), were injected and allowed to circulate through the vessel. […] In the right panel the effects of microtentacle inhibitors are imaged with DIC microscopy. Detachment of vimentin-expressing breast tumor cell lines, like MDA-231 and MDA-436 (pictured, FIG. 23 D), stimulates the formation of rapidly-moving tubulin microtentacles (Whipple et al., “Vimentin filaments support extension of tubulin-based microtentacles in detached breast tumor cells”, Cancer Research, (2008), (under revision)). We added the kinesin inhibitor, tetracaine (100 μM) (Miyamoto et al., Biophys. J., 78:940-949 (2000)) and collected DIC images every 30 seconds (Yoon et al., “Microtentacles in detached breast tumor cells require kinesin motor activity”, manuscript in preparation (2008)). After approximately 10 minutes, tubulin microtentacles collapse dramatically (FIG. 23 E). This concentration of drug is non-toxic to these cells, even after 24 hours.

MDA-436 cells = assay: Toxicity of microtentacle inhibitors to breast tumor cells; format: cell-based; settings: 100 μM, even after 24 hours
Method: as §9

[13] = tested on: Bax- and Bak-deficient MEFs (DKO); settings: cited from earlier work
[14] = LA 5 μM, TRAIL 1 μg/mL, CHX 30 μg/mL, DOX 3 μg/mL
[15] = LA 24 h, versus parental MCF10A

Molecule: COC(=O)N[C@@H](CCSC)C(=O)Oc1ccc(Nc2nc3c(s2)C(=O)c2ccccc2C3=O)cc1 [YC-137]
- decrease in cell viability (XTT) compared to YC-137 alone ([1]; 1 μg/ml YC-137 combined with 2.5 μM LA): greater than 2 fold
- cell viability (XTT) compared to YC-137 alone ([1]; YC-137 1 μg/ml or 2.5 μg/ml with LA 2.5 μM, 24 h, P<0.05): significant decrease in cell viability
- doses at which YC-137 causes toxicity on its own ([1]; YC-137 alone): higher than 1 μM
- effect on rounded versus attached cells ([1]; YC-137 at lower levels): affects rounded cells more than attached cells
- cell death on combining with cell rounding ([1]; YC-137 with LA 2.5 μM, 24 h): increases cell death
- toxicity to attached and rounded cells (MCF10A cells [2]): toxic to both attached and rounded MCF10A cells
- viability (XTT) (MCF10A cells [2]): lose viability
- cell death on combining with cell rounding (MCF10A cells [2]; YC-137 with LA 2.5 μM, 24 h): increases cell death

Molecule: CC(C)C[C@@H](C=O)NC(=O)[C@H](CC(C)C)NC(=O)[C@H](CC(C)C)NC(=O)OCc1ccccc1 [MG132] (Cbz-Leu-Leu-Leu-aldehyde)
- Bik protein (Western blotting) (Bik protein [3]; MG132 5 μM): strong induction of Bik protein; also recorded: strongly upregulated; also recorded: strongly increased
- Bik protein (immunoblot) (Bik protein [4]): significantly lower levels of Bik protein; also recorded: remained low

Molecule: C[C@@H]1C[C@@H]([C@H](O)CC2CC(=O)NC(=O)C2)C(=O)[C@@H](C)C1 [Cycloheximide]
- cell death (MCF10A cells [5]): causes cell death comparable to LA
- apoptosis as assessed by PARP cleavage (MCF10A cells [5]): does induce apoptosis
- Bik protein (Western blotting) (Bik protein [3]; [14]): do not increase Bik levels
- Bik protein (Western blotting) (Bik protein [3]; LA 5 μM, TRAIL 1 μg/mL, CHX 30 μg/mL, DOX 3 μg/mL, listed as cycloheximide): did not induce significant expression of Bik; also recorded: did not increase Bik protein

Molecule: COc1cccc2c1C(=O)c1c(O)c3c(c(O)c1C2=O)C[C@@](O)(C(=O)CO)C[C@@H]3O[C@H]1C[C@H](N)[C@H](O)[C@H](C)O1 [Doxorubicin]
- cell death (MCF10A cells [5]): causes cell death comparable to LA
- apoptosis as assessed by PARP cleavage (MCF10A cells [5]): does induce apoptosis
- Bik protein (Western blotting) (Bik protein [3]; [14]): did not induce significant expression of Bik; also recorded: do not increase Bik levels; also recorded: did not increase Bik protein

Molecule: C/C1=C/C(=O)O[C@@H]2C[C@@H](CC[C@H](C)/C=C\C=C\CC1)O[C@@](O)([C@@H]1CSC(=O)N1)C2 [Latrunculin-A]
- BCRP protein (Western blotting) (BCRP protein [6]): increases BCRP protein
- BCRP protein (Western blotting) (BCRP protein [7]): not
- resistance to LA-induced apoptosis (XTT viability) (breast tumor cell lines): highly resistant to LA-induced apoptosis; also recorded: significant resistance to apoptosis
- Bik protein (Western blotting) (Bik protein [3]; [14]): increases; also recorded: did increase Bik significantly
- resistance to apoptosis induced by cell rounding (XTT) [1, 15]: significantly resistant
- tolerated doses of LA ([1]; cell rounding): ≤ 20 µM
- LA concentration at which cell death is maximal (MCF10A cells [2]): 5 µM
- cell viability (XTT) (MCF10A cells [2]; LA 24 h, doses as low as 2.5 μM): drops significantly
- Bik protein (Western blotting) (Bik protein [8]): dramatic increases in Bik protein
- Bik protein (Western blotting) (Bik protein [9]): dramatic increases in Bik protein
- resistance to apoptosis induced by cell rounding (XTT) [10, 15]: significantly resistant
- cells remaining viable (XTT) ([10]; LA as high as 20 μM, 24 h): ~60%
- BCRP protein (Western blotting) (BCRP protein [11]): increases BCRP protein

Molecule: CCCCNc1ccc(C(=O)OCCN(C)C)cc1 [tetracaine]
- time to collapse of tubulin microtentacles [12]: approximately 10 minutes
- toxicity to the cells (MDA-436 cells): non-toxic

Molecule: BH3I-1
- toxicity against cells that lack Bax and Bak [13]: toxic against cells that lack Bax and Bak

B1: TRAIL: apoptotic stimulus (protein, UniProt P50591 1-281, looked up)
Tumor necrosis factor ligand …: MAMMEVQGGPSLGQTCVLIVIFTVLLQSLCVAVTYVYFTNELKQMQDKYSKSGIACFLKEDDSYWDPNDEESMNSPCWQVKWQLRQLVRKMILRTSEETISTVQEKQQNISPLVRERGPQRVAAHITGTRGRSNTLSSPNSKNEKALGRKINSWESSRSGHSFLSNLHLRNGELVIHEKGFYYIYSQTYFRFQEEIKENTKNDKQMVQYIYKYTSYPDPILLMKSARNSCWSKDAEYGLYSIYQGGIFELKENDRIFVSVTNEHLIDMDHEASFFGAFLVG
- cell death (MCF10A cells [5]): causes cell death comparable to LA
- apoptosis as assessed by PARP cleavage (MCF10A cells [5]): does induce apoptosis
- Bik protein (Western blotting) (Bik protein [3]; [14]): did not induce significant expression of Bik; also recorded: do not increase Bik levels; also recorded: did not increase Bik protein
